# In ChEMBL document CHEMBL3885861, “Open TG-GATES”:
# Organism: Rattus norvegicus
# Test: Open TG-GATES - Regimen: Daily Repeat
# Format: toxicity, organism-based, Sprague-Dawley
# Set-up: regimen Daily Repeat, gender Male, age 6 weeks
# Conditions: in vivo, iv, route intravenous injection; for KIDNEY_L / KIDNEY_R / KIDNEY_TOTAL: tissue Kidney; for LIVER: tissue Liver; for ALP / ALT / AST / CRE / DBIL / GLC / IP / K / LDH / PL / RALB / TBIL / TC / TG / TP / gamma-GTP / Na / Ca / BUN: tissue Plasma
# [1] = 3 mg/kg, 72 h, dose level Middle, time 3 day
# [2] = 3 mg/kg, 72 h, tissue Blood, dose level Middle, time 3 day
# [3] = 3 mg/kg, […], dose level Middle, time 7 day
# [4] = 3 mg/kg, […], dose level Middle, time 14 day
# [5] = 3 mg/kg, […], dose level Middle, time 28 day
# [6] = 3 mg/kg, […], tissue Blood, dose level Middle, time 7 day
# [7] = 3 mg/kg, […], tissue Blood, dose level Middle, time 14 day
# [8] = 3 mg/kg, […], tissue Blood, dose level Middle, time 28 day
# [9] = 10 mg/kg, 72 h, dose level High, time 3 day
# [10] = 10 mg/kg, 72 h, tissue Blood, dose level High, time 3 day
# [11] = 10 mg/kg, […], dose level High, time 7 day
# [12] = 10 mg/kg, […], dose level High, time 14 day
# [13] = 10 mg/kg, […], dose level High, time 28 day
# [14] = 10 mg/kg, […], tissue Blood, dose level High, time 7 day
# [15] = 10 mg/kg, […], tissue Blood, dose level High, time 14 day
# [16] = 10 mg/kg, […], tissue Blood, dose level High, time 28 day
sequence,measurement,setting,value
CARBOPLATIN,TERMINAL_BW,[1],220.6 g
same,APTT,[2],24.1 s
same,Bas,[2],0%
same,Eos,[2],1.2%
same,Fbg,[2],324.4 mg/dL
same,Ht,[2],41.2%
same,Lym,[2],74.6%
same,MCHC,[2],32.6%
same,MCV,[2],62.7 fL
same,Mono,[2],3%
same,Neu,[2],20.6%
same,PT,[2],16.5 s
same,Plat,[2],127.4 x10_4/uL
same,RBC,[2],657.4 x10_4/ul
same,Ret,[2],4%
same,WBC,[2],89.9 x10_2/uL
same,KIDNEY_L,[1],0.9 g
same,KIDNEY_R,[1],0.9 g
same,KIDNEY_TOTAL,[1],1.9 g
same,LIVER,[1],9.8 g
same,ALP,[1],1530.2 IU/L
same,ALT,[1],43 IU/L
same,AST,[1],74.8 IU/L
same,CRE,[1],0.2 mg/dL
same,DBIL,[1],0 mg/dL
same,GLC,[1],173.6 mg/dL
same,IP,[1],7.1 mg/dL
same,K,[1],4.7 meq/L
same,LDH,[1],185.8 IU/L
same,PL,[1],129.2 mg/dL
same,RALB,[1],3.1 g/dL
same,TBIL,[1],0.004 mg/dL
same,TC,[1],65 mg/dL
same,TG,[1],104.6 mg/dL
same,TP,[1],5.5 g/dL
same,gamma-GTP,[1],1.4 IU/L
same,TERMINAL_BW,[3],244.7 g
same,TERMINAL_BW,[4],304.5 g
same,TERMINAL_BW,[5],349.4 g
same,APTT,[6],23.6 s
same,Bas,[6],0%
same,Eos,[6],0.8%
same,Fbg,[6],296.2 mg/dL
same,MCHC,[6],32.4%
same,MCV,[6],62.2 fL
same,Mono,[6],2.4%
same,Neu,[6],16.6%
same,Plat,[6],130.4 x10_4/uL
same,RBC,[6],649.2 x10_4/ul
same,Ret,[6],4.6%
same,WBC,[6],97.3 x10_2/uL
same,APTT,[7],25.4 s
same,Bas,[7],0%
same,Eos,[7],0.6%
same,Fbg,[7],327 mg/dL
same,Hb,[7],14 g/dL
same,Ht,[7],41.1%
same,Lym,[7],86%
same,MCHC,[7],34%
same,MCV,[7],61.4 fL
same,Mono,[7],3.2%
same,Neu,[7],9.2%
same,Plat,[7],119.2 x10_4/uL
same,RBC,[7],670 x10_4/ul
same,Ret,[7],2.8%
same,WBC,[7],100.3 x10_2/uL
same,APTT,[8],26.7 s
same,Bas,[8],0%
same,Eos,[8],0.8%
same,Fbg,[8],332.2 mg/dL
same,Ht,[8],42.1%
same,Lym,[8],83%
same,MCH,[8],19 pg
same,MCHC,[8],35.1%
same,MCV,[8],54.2 fL
same,Mono,[8],2.8%
same,Plat,[8],118.9 x10_4/uL
same,RBC,[8],777.6 x10_4/ul
same,Ret,[8],1.9%
same,WBC,[8],87.9 x10_2/uL
same,KIDNEY_L,[3],1.1 g
same,KIDNEY_R,[3],1.1 g
same,KIDNEY_TOTAL,[3],2.1 g
same,KIDNEY_L,[4],1.3 g
same,KIDNEY_R,[4],1.3 g
same,KIDNEY_TOTAL,[4],2.5 g
same,KIDNEY_L,[5],1.3 g
same,KIDNEY_R,[5],1.3 g
same,KIDNEY_TOTAL,[5],2.6 g
same,LIVER,[3],11.2 g
same,LIVER,[4],13.5 g
same,LIVER,[5],13.9 g
same,ALP,[3],1757.2 IU/L
same,ALT,[3],40.6 IU/L
same,AST,[3],82.6 IU/L
same,CRE,[3],0.2 mg/dL
same,DBIL,[3],0 mg/dL
same,GLC,[3],169.6 mg/dL
same,IP,[3],7 mg/dL
same,K,[3],4.7 meq/L
same,LDH,[3],186 IU/L
same,Na,[3],140 meq/L
same,PL,[3],143 mg/dL
same,RALB,[3],3.1 g/dL
same,TBIL,[3],0.006 mg/dL
same,TC,[3],70.4 mg/dL
same,TG,[3],110 mg/dL
same,TP,[3],5.6 g/dL
same,gamma-GTP,[3],1.6 IU/L
same,ALP,[4],1299.2 IU/L
same,ALT,[4],41.4 IU/L
same,AST,[4],84.2 IU/L
same,CRE,[4],0.2 mg/dL
same,Ca,[4],11 mg/dL
same,DBIL,[4],0 mg/dL
same,GLC,[4],170.4 mg/dL
same,IP,[4],6.8 mg/dL
same,K,[4],4.4 meq/L
same,LDH,[4],147 IU/L
same,PL,[4],148 mg/dL
same,RALB,[4],3.2 g/dL
same,TBIL,[4],0.006 mg/dL
same,TC,[4],74.2 mg/dL
same,TG,[4],131.2 mg/dL
same,TP,[4],6 g/dL
same,gamma-GTP,[4],3.4 IU/L
same,ALP,[5],1001.8 IU/L
same,ALT,[5],40.6 IU/L
same,AST,[5],78 IU/L
same,BUN,[5],18 mg/dL
same,CRE,[5],0.2 mg/dL
same,Ca,[5],11 mg/dL
same,DBIL,[5],0 mg/dL
same,GLC,[5],179.6 mg/dL
same,IP,[5],6.1 mg/dL
same,K,[5],4.2 meq/L
same,LDH,[5],131 IU/L
same,PL,[5],134.2 mg/dL
same,RALB,[5],3.2 g/dL
same,TBIL,[5],0.004 mg/dL
same,TC,[5],72.4 mg/dL
same,TG,[5],96 mg/dL
same,TP,[5],6.3 g/dL
same,gamma-GTP,[5],2 IU/L
same,TERMINAL_BW,[9],210.3 g
same,APTT,[10],23.5 s
same,Bas,[10],0%
same,Eos,[10],1.2%
same,Fbg,[10],288 mg/dL
same,Hb,[10],13 g/dL
same,Ht,[10],39.9%
same,Lym,[10],85.8%
same,MCHC,[10],32.7%
same,MCV,[10],62.8 fL
same,Mono,[10],3.2%
same,Neu,[10],8.8%
same,PT,[10],16.4 s
same,Plat,[10],122.5 x10_4/uL
same,RBC,[10],635.4 x10_4/ul
same,Ret,[10],2.7%
same,WBC,[10],75.4 x10_2/uL
same,KIDNEY_L,[9],0.9 g
same,KIDNEY_R,[9],1 g
same,KIDNEY_TOTAL,[9],1.9 g
same,LIVER,[9],9.3 g
same,ALP,[9],1408.4 IU/L
same,ALT,[9],33.8 IU/L
same,BUN,[9],16.4 mg/dL
same,CRE,[9],0.2 mg/dL
same,DBIL,[9],0.002 mg/dL
same,GLC,[9],170.4 mg/dL
same,IP,[9],7 mg/dL
same,K,[9],4.6 meq/L
same,Na,[9],140.2 meq/L
same,PL,[9],129.6 mg/dL
same,RALB,[9],3.1 g/dL
same,TBIL,[9],0.008 mg/dL
same,TC,[9],63.2 mg/dL
same,TG,[9],84.4 mg/dL
same,TP,[9],5.5 g/dL
same,gamma-GTP,[9],1.4 IU/L
same,TERMINAL_BW,[11],215.5 g
same,TERMINAL_BW,[12],246.4 g
same,TERMINAL_BW,[13],260.5 g
same,APTT,[14],27.1 s
same,Bas,[14],0%
same,Eos,[14],0.8%
same,Fbg,[14],285.8 mg/dL
same,Hb,[14],13.7 g/dL
same,Ht,[14],41.4%
same,Lym,[14],83.6%
same,MCV,[14],62.3 fL
same,Mono,[14],4.8%
same,Neu,[14],9.6%
same,PT,[14],15.7 s
same,Plat,[14],124.5 x10_4/uL
same,RBC,[14],665.8 x10_4/ul
same,Ret,[14],1.5%
same,WBC,[14],46.7 x10_2/uL
same,APTT,[15],26.8 s
same,Bas,[15],0%
same,Eos,[15],0.4%
same,Fbg,[15],299.6 mg/dL
same,Hb,[15],14.1 g/dL
same,Lym,[15],80.8%
same,MCHC,[15],33.9%
same,MCV,[15],59.3 fL
same,Mono,[15],4.6%
same,Plat,[15],50.2 x10_4/uL
same,RBC,[15],701 x10_4/ul
same,Ret,[15],0.8%
same,WBC,[15],57.1 x10_2/uL
same,APTT,[16],25.4 s
same,Bas,[16],0%
same,Eos,[16],0%
same,Fbg,[16],275.2 mg/dL
same,Hb,[16],11.8 g/dL
same,Ht,[16],33.8%
same,Lym,[16],81%
same,MCHC,[16],34.8%
same,MCV,[16],55.8 fL
same,Mono,[16],3.6%
same,PT,[16],15.6 s
same,Plat,[16],66.5 x10_4/uL
same,RBC,[16],607.8 x10_4/ul
same,Ret,[16],3.1%
same,WBC,[16],60.4 x10_2/uL
same,KIDNEY_L,[11],0.9 g
same,KIDNEY_R,[11],1 g
same,KIDNEY_TOTAL,[11],1.9 g
same,KIDNEY_L,[12],1.1 g
same,KIDNEY_R,[12],1.1 g
same,KIDNEY_TOTAL,[12],2.2 g
same,KIDNEY_L,[13],1.2 g
same,KIDNEY_R,[13],1.2 g
same,KIDNEY_TOTAL,[13],2.4 g
same,LIVER,[11],8.8 g
same,ALP,[11],1401.8 IU/L
same,ALT,[11],41.4 IU/L
same,AST,[11],102 IU/L
same,CRE,[11],0.2 mg/dL
same,DBIL,[11],0.002 mg/dL
same,GLC,[11],170.8 mg/dL
same,IP,[11],7.3 mg/dL
same,K,[11],4.4 meq/L
same,Na,[11],140.4 meq/L
same,PL,[11],118.6 mg/dL
same,RALB,[11],3.2 g/dL
same,TBIL,[11],0.012 mg/dL
same,TC,[11],66 mg/dL
same,TG,[11],38.2 mg/dL
same,TP,[11],6 g/dL
same,gamma-GTP,[11],1 IU/L
same,ALP,[12],1127 IU/L
same,ALT,[12],48 IU/L
same,AST,[12],93.2 IU/L
same,BUN,[12],16.6 mg/dL
same,CRE,[12],0.2 mg/dL
same,DBIL,[12],0 mg/dL
same,GLC,[12],170.4 mg/dL
same,IP,[12],6.6 mg/dL
same,K,[12],4.5 meq/L
same,LDH,[12],161 IU/L
same,PL,[12],139.8 mg/dL
same,RALB,[12],3.2 g/dL
same,TBIL,[12],0.016 mg/dL
same,TC,[12],74.8 mg/dL
same,TG,[12],83.4 mg/dL
same,TP,[12],5.8 g/dL
same,gamma-GTP,[12],1.8 IU/L
same,ALP,[13],682.8 IU/L
same,ALT,[13],40 IU/L
same,AST,[13],97.8 IU/L
same,BUN,[13],22 mg/dL
same,CRE,[13],0.2 mg/dL
same,DBIL,[13],0.016 mg/dL
same,GLC,[13],170 mg/dL
same,IP,[13],6.2 mg/dL
same,K,[13],4.5 meq/L
same,LDH,[13],533 IU/L
same,PL,[13],127.8 mg/dL
same,RALB,[13],3 g/dL
same,TBIL,[13],0.052 mg/dL
same,TC,[13],78.6 mg/dL
same,TG,[13],48.8 mg/dL
same,TP,[13],6 g/dL
same,gamma-GTP,[13],1.8 IU/L
